Experimental data published in patent US9518018B2, “3-alkoxy, thioalkyl and amino-4-amino-6-(substituted)picolinates and their use as herbicides” (Dow AgroSciences LLC, priority 2011, dated 2016).
Read-outs that look alike come from different tables or passages of the source.

What was measured:
[1] = test system: ABUTH: velvetleaf (Abutilon theophrasti); assay: Post-Emergent Test I herbicidal activity; assay type: in vivo; conditions: for pest or weed control at 140 g/ha / pest or weed control at 17.5 g/ha / pest or weed control at 35 g/ha / pest or weed control at 70 g/ha / pest or weed control at 280 g/ha: Abutilon theophrasti, post-emergence, 336 h, read-out: Visual Growth Reduction (%)-14 Days after Application ABUTH; for pest or weed control at 17.5 g/ha: Table 4, 17.5 g ai/ha; for pest or weed control at 35 g/ha: Table 4, 35 g ai/ha; for pest or weed control at 70 g/ha: Table 4, 70 g ai/ha; for GR20 ABUTH: Table 4, growth reduction of 20% of plant growth; for GR20 ABUTH / GR50 ABUTH / GR80 ABUTH: 14 days after application, probit analysis; for GR50 ABUTH: Table 4, growth reduction of 50% of plant growth; for GR80 ABUTH: Table 4, growth reduction of 80% of plant growth
Procedure, shortened: (§1)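 Foliar spray, 187 L/ha, track sprayer; plants at 1st–2nd true leaf, 7–21 d old. Carrier: acetone/DMSO + aqueous acetone/IPA/crop oil/Triton X-155; high rate plus ½×–1/16× dilutions. Subirrigated; visual % injury vs untreated at 14 d.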

[2] = test system: CHEAL: lambsquarters (Chenopodium album); assay: Post-Emergent Test I herbicidal activity; assay type: in vivo; conditions: for pest or weed control at 140 g/ha / pest or weed control at 17.5 g/ha / pest or weed control at 35 g/ha / pest or weed control at 70 g/ha / pest or weed control at 280 g/ha: Chenopodium album, post-emergence, 336 h, read-out: Visual Growth Reduction (%)-14 Days after Application CHEAL; for pest or weed control at 17.5 g/ha: Table 4, 17.5 g ai/ha; for pest or weed control at 35 g/ha: Table 4, 35 g ai/ha; for pest or weed control at 70 g/ha: Table 4, 70 g ai/ha; for GR20 CHEAL: Table 4, growth reduction of 20% of plant growth; for GR20 CHEAL / GR50 CHEAL / GR80 CHEAL: 14 days after application, probit analysis; for GR50 CHEAL: Table 4, growth reduction of 50% of plant growth; for GR80 CHEAL: Table 4, growth reduction of 80% of plant growth
Procedure, shortened: as §1

[3] = test system: CYPES: yellow nutsedge (Cyperus esculentus); assay: Post-Emergent Test I herbicidal activity; assay type: in vivo; conditions: post-emergence, 336 h, read-out: Visual Growth Reduction (%)-14 Days after Application CYPES; for pest or weed control at 140 g/ha: Table 3, 140 g ai/ha
Procedure, shortened: as §1

[4] = test system: ECHCG: barnyardgrass (Echinochloa crus-galli); assay: Post-Emergent Test I herbicidal activity; assay type: in vivo; conditions: post-emergence, 336 h, read-out: Visual Growth Reduction (%)-14 Days after Application ECHCG; for pest or weed control at 140 g/ha: Table 3, 140 g ai/ha
Procedure, shortened: as §1

[5] = test system: EPHHL: wild poinsettia (Euphorbia heterophylla); assay: Post-Emergent Test I herbicidal activity; assay type: in vivo; conditions: post-emergence, 336 h, read-out: Visual Growth Reduction (%)-14 Days after Application EPHHL; for pest or weed control at 140 g/ha: Table 3, 140 g ai/ha
Procedure, shortened: as §1

[6] = test system: ORYSA: rice (Oryza sativa); assay: Post-Emergent Test I herbicidal activity; assay type: in vivo; conditions: post-emergence, 336 h, read-out: Visual Growth Reduction (%)-14 Days after Application ORYSA; for pest or weed control at 140 g/ha: Table 3, 140 g ai/ha
Procedure, shortened: as §1

ZEAMX: corn (Zea mays) = assay: Post-Emergent Test I herbicidal activity; assay type: in vivo; conditions: for GR20 ZEAMX: Table 4, growth reduction of 20% of plant growth; for GR20 ZEAMX / GR50 ZEAMX / GR80 ZEAMX: 14 days after application, probit analysis; for GR50 ZEAMX: Table 4, growth reduction of 50% of plant growth; for GR80 ZEAMX: Table 4, growth reduction of 80% of plant growth; for pest or weed control at 140 g/ha / pest or weed control at 17.5 g/ha / pest or weed control at 35 g/ha / pest or weed control at 70 g/ha / pest or weed control at 280 g/ha: Zea mays, post-emergence, 336 h, read-out: Visual Growth Reduction (%)-14 Days after Application ZEAMX; for pest or weed control at 17.5 g/ha: Table 4, 17.5 g ai/ha; for pest or weed control at 35 g/ha: Table 4, 35 g ai/ha; for pest or weed control at 70 g/ha: Table 4, 70 g ai/ha
Procedure, shortened: as §1

melting point	Structure (SMILES)	pest or weed control at 140 g/ha ([1]; Table 3, 140 g ai/ha)	pest or weed control at 17.5 g/ha [1]	pest or weed control at 35 g/ha [1]	pest or weed control at 70 g/ha [1]	pest or weed control at 140 g/ha ([1]; Table 4, 140 g ai/ha)	pest or weed control at 280 g/ha ([1]; Table 4, 280 g ai/ha)	GR20 ABUTH [1]	GR50 ABUTH [1]	GR80 ABUTH [1]	pest or weed control at 140 g/ha ([2]; Table 3, 140 g ai/ha)	pest or weed control at 17.5 g/ha [2]	pest or weed control at 35 g/ha [2]	pest or weed control at 70 g/ha [2]	GR20 CHEAL [2]	GR50 CHEAL [2]	GR80 CHEAL [2]	pest or weed control at 140 g/ha [3]	pest or weed control at 140 g/ha [4]	pest or weed control at 140 g/ha [5]	further results
165 °C	COc1c(N)cc(-c2ccc(Cl)cc2)nc1C(=O)O [Compound 46]	100%	80%	85%	95%	100%	100%	<17.5 g ai/ha	<17.5 g ai/ha	19.7 g ai/ha	100%	90%	95%	100%	<17.5 g ai/ha	<17.5 g ai/ha	<17.5 g ai/ha	0%	15%	100%	pest or weed control at 280 g/ha ([2]; Table 4, 280 g ai/ha): 100%; Visual Growth Reduction (%)-14 Days after Application CHEAL ([2]; Table 4, 140 g ai/ha): 100%; pest or weed control at 140 g/ha [6]: 0%; GR20 ZEAMX (ZEAMX: corn (Zea mays)): >280 g ai/ha; GR50 ZEAMX (ZEAMX: corn (Zea mays)): >280 g ai/ha; GR80 ZEAMX (ZEAMX: corn (Zea mays)): >280 g ai/ha; pest or weed control at 140 g/ha (ZEAMX: corn (Zea mays); Table 3, 140 g ai/ha): 0%; pest or weed control at 17.5 g/ha (ZEAMX: corn (Zea mays)): 0%; pest or weed control at 35 g/ha (ZEAMX: corn (Zea mays)): 0%; pest or weed control at 70 g/ha (ZEAMX: corn (Zea mays)): 0%; pest or weed control at 140 g/ha (ZEAMX: corn (Zea mays); Table 4, 140 g ai/ha): 0%; pest or weed control at 280 g/ha (ZEAMX: corn (Zea mays); Table 4, 280 g ai/ha): 0%
118 °C	COc1c(C(=O)OCc2ccccc2)nc(-c2ccc(Cl)c(OC)c2F)c(F)c1N [Compound 66, benzyl 4-amino-6-(4-chloro-2-fluoro-3-methoxyphenyl)-5-fluoro-3-methoxypicolinate]	100%	–	–	–	–	–	–	–	–	100%	–	–	–	–	–	–	100%	60%	100%	pest or weed control at 140 g/ha [6]: 0%; pest or weed control at 140 g/ha (ZEAMX: corn (Zea mays); Table 3, 140 g ai/ha): 80%
78 to 79 °C	COC(=O)c1nc(Cl)cc(N)c1OC [Compound 1, methyl 4-amino-6-chloro-3-methoxypicolinate]	–	40%	85%	95%	95%	100%	10.5 g ai/ha	19.4 g ai/ha	35.9 g ai/ha	–	90%	90%	95%	<17.5 g ai/ha	<17.5 g ai/ha	<17.5 g ai/ha	–	–	–	pest or weed control at 280 g/ha ([1]; Table 3, 280 g ai/ha): 100%; pest or weed control at 280 g/ha ([2]; Table 3, 280 g ai/ha): 100%; pest or weed control at 140 g/ha ([2]; Table 4, 140 g ai/ha): 100%; Visual Growth Reduction (%)-14 Days after Application CHEAL ([2]; Table 4, 280 g ai/ha): 100%; pest or weed control at 280 g/ha ([3]; Table 3, 280 g ai/ha): 0%; pest or weed control at 280 g/ha ([4]; Table 3, 280 g ai/ha): 0%; pest or weed control at 280 g/ha ([5]; Table 3, 280 g ai/ha): 100%; pest or weed control at 280 g/ha ([6]; Table 3, 280 g ai/ha): 0%; GR20 ZEAMX (ZEAMX: corn (Zea mays)): >280 g ai/ha; GR50 ZEAMX (ZEAMX: corn (Zea mays)): >280 g ai/ha; GR80 ZEAMX (ZEAMX: corn (Zea mays)): >280 g ai/ha; pest or weed control at 280 g/ha (ZEAMX: corn (Zea mays); Table 3, 280 g ai/ha): 0%; pest or weed control at 17.5 g/ha (ZEAMX: corn (Zea mays)): 0%; pest or weed control at 35 g/ha (ZEAMX: corn (Zea mays)): 0%; pest or weed control at 70 g/ha (ZEAMX: corn (Zea mays)): 0%; pest or weed control at 140 g/ha (ZEAMX: corn (Zea mays); Table 4, 140 g ai/ha): 0%; pest or weed control at 280 g/ha (ZEAMX: corn (Zea mays); Table 4, 280 g ai/ha): 0%
